Laboratory results taken from patent publication US8247424B2, “Fredericamycin derivatives” (Zentopharm GmbH, priority 2002, dated 2012).
≈ marks a conversion by molar mass, not a printed value.

Test: Biological activity against 12 cancer cell lines, efficacy (IC70) averaged over all cell lines;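 note: panel also covers renal lines RXF 944L and RXF 486L, uterine UXF 1138L, and prostate lines PRXF PC3M and PRXF 22RV1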
Assay type: cell-based
Conditions: averaged over all 12 cancer cell lines, 5 test concentrations
Protocol: LCL (H460, lung), MACL (MCF7, breast), LXFL (52L, lung), LXFA (629L, lung), MEXF (462NL, melanoma), MEXF (514L, melanoma), MAXF (401NL, breast), RXF (944L, renal), RXF (486L, renal), UXF (1138L, uterus), PRXF (PC3M, prostate), PRXF (22RV1).
Compound `C/C=C/C=C/c1cc2c(F)c3c(c(O)c2c(=O)[nH]1)[C@@]1(CC3)C(=O)c2c(O)c3c(c(O)c2C1=O)C(=O)C(OC)=CC3=O` [Example 23, (8S)-5-fluoro-4′,9,9′-trihydroxy-6′-methoxy-3-[(1E,3E)-penta-1,3-dienyl]-6,7-dihydrospiro[cyclopenta[g]isoquinoline-8,2′-cyclopenta[b]-naphthalene]-1,1′,3′,5′,8′(2H)-pentone] has an IC70 of 0.011 µg/mL (≈ 0.0197 µM).
`COC1=CC(=O)c2c(O)c3c(c(O)c2C1=O)C(=O)C1(CCc2cc4cc(C=NOCc5ccccc5)[nH]c(=O)c4c(O)c21)C3=O` (centres unmarked) [Example 121, 4′,9,9′-Trihydroxy-6′-methoxy-1,1′,3′,5′,8′-pentaoxo-1,1′,2,3′,5′,6,7,8′-octahydrospiro[cyclopenta[g]isoquinoline-8,2′-cyclopenta[b]-naphthalene]-3-carbaldehyde O-benzyloxime] showed an IC70 of 0.202 µg/mL (≈ 0.333 µM).
Work on `COC1=CC(=O)c2c(O)c3c(c(O)c2C1=O)C(=O)C1(CCc2cc4cc(C=NOCc5cccc(Cl)c5)[nH]c(=O)c4c(O)c21)C3=O` (centres unmarked) [Example 127, 4′,9,9′-Trihydroxy-6′-methoxy-1,1′,3′,5′,8′-pentaoxo-1,1′,2,3′,5′,6,7,8′-octahydrospiro[cyclopenta[g]isoquinoline-8,2′-cyclopenta[b]-naphthalene]-3-carbaldehyde O-(3-chlorobenzyl)oxime] yielded an IC70 of 0.155 µg/mL (≈ 0.242 µM).
`COC1=CC(=O)c2c(O)c3c(c(O)c2C1=O)C(=O)[C@]1(CCc2c1c(O)c1c(=O)[nH]c(C=NOCCN4CCOCC4)cc1c2Br)C3=O` [Example 192, (8S)-5-bromo-4′,9,9′-trihydroxy-6′-methoxy-1,1′,3′,5′,8′-pentaoxo-1,1′,2,3′,5′,6,7,8′-octahydrospiro[cyclopenta[g]isoquinoline-8,2′-cyclopenta[b]-naphthalene]-3-carbaldehyde O-[2-morpholine-4-yl-ethyl)oxime] showed an IC70 of 0.075 µg/mL (≈ 0.106 µM).
In the case of `CON=Cc1cc2c(Br)c3c(c(O)c2c(=O)[nH]1)[C@@]1(CC3)C(=O)c2c(O)c3c(c(O)c2C1=O)C(=O)C(OC)=CC3=O` [Example 196, (8S)-5-bromo-4′,9,9′-trihydroxy-6′-methoxy-1,1′,3′,5′,8′-pentaoxo-1,1′,2,3′,5′,6,7,8′-octahydrospiro[cyclopenta[g]isoquinoline-8,2′-cyclopenta[b]-naphthalene]-3-carbaldehyde O-methyloxime], the IC70 is reported as 0.095 µg/mL (≈ 0.156 µM).
With `COC1=CC(=O)c2c(O)c3c(c(O)c2C1=O)C(=O)[C@]1(CCc2c1c(O)c1c(=O)[nH]c(C=NOCc4ccccc4)cc1c2Br)C3=O` [Example 197, (8S)-5-bromo-4′,9,9′-trihydroxy-6′-methoxy-1,1′,3′,5′,8′-pentaoxo-1,1′,2,3′,5′,6,7,8′-octahydrospiro[cyclopenta[g]isoquinoline-8,2′-cyclopenta[b]-naphthalene]-3-carbaldehyde-O-benzyloxime] the IC70 was 0.034 µg/mL (≈ 0.0496 µM).
With `COC1=CC(=O)c2c(O)c3c(c(O)c2C1=O)C(=O)[C@]1(CCc2c1c(O)c1c(=O)[nH]c(C=NO)cc1c2Br)C3=O` [Example 198, (8S)-5-bromo-4′,9,9′-trihydroxy-6′-methoxy-1,1′,3′,5′,8′-pentaoxo-1,1′,2,3′,5′,6,7,8′-octahydrospiro[cyclopenta[g]isoquinoline-8,2′-cyclopenta[b]-naphthalene]-3-carbaldehyde oxime] the IC70 was 0.256 µg/mL (≈ 0.43 µM).
Work on `COC1=CC(=O)c2c(O)c3c(c(O)c2C1=O)C(=O)[C@]1(CCc2c1c(O)c1c(=O)[nH]c(C=NOCc4cccc(Cl)c4)cc1c2Br)C3=O` [Example 203, (8S)-5-bromo-4′,9,9′-trihydroxy-6′-methoxy-1,1′,3′,5′,8′-pentaoxo-1,1′,2,3′,5′,6,7,8′-octahydrospiro[cyclopenta[g]isoquinoline-8,2′-cyclopenta[b]-naphthalene]-3-carbaldehyde O-(3-chlorobenzyl)oxime] yielded an IC70 of 0.159 µg/mL (≈ 0.221 µM).
With `COC1=CC(=O)c2c(O)c3c(c(O)c2C1=O)C(=O)[C@]1(CCc2c1c(O)c1c(=O)[nH]c(C=NOCCCN4CCN(c5cccc(Cl)c5)CC4)cc1c2Br)C3=O` [Example 212, (8S)-5-bromo-4′,9,9′-trihydroxy-6′-methoxy-1,1′,3′,5′,8′-pentaoxo-1,1′,2,3′,5′,6,7,8′-octahydrospiro[cyclopenta[g]isoquinoline-8,2′-cyclopenta[b]-naphthalene]-3-carbaldehyde O-[3-(4-(3-chlorophenyl)-piperazine-1-yl)propyl]oxime] the IC70 was 0.21 µg/mL (≈ 0.252 µM).
`COC1=CC(=O)c2c(O)c3c(c(O)c2C1=O)C(=O)[C@]1(CCc2cc4cc(C=NOC(C)C)[nH]c(=O)c4c(O)c21)C3=O` [Example 214, (8S)-4′,9,9′-trihydroxy-6′-methoxy-1,1′,3′,5′,8′-pentaoxo-1,1′,2,3′,5′,6,7,8′-octahydrospiro[cyclopenta[g]isoquinoline-8,2′-cyclopenta[b]-naphthalene]-3-carbaldehyde O-isopropyloxime] showed an IC70 of 0.022 µg/mL (≈ 0.0394 µM).
Work on `CCCCCCON=Cc1cc2cc3c(c(O)c2c(=O)[nH]1)[C@@]1(CC3)C(=O)c2c(O)c3c(c(O)c2C1=O)C(=O)C(OC)=CC3=O` [Example 215, (8S)-4′,9,9′-trihydroxy-6′-methoxy-1,1′,3′,5′,8′-pentaoxo-1,1′,2,3′,5′,6,7,8′-octahydrospiro[cyclopenta[g]isoquinoline-8,2′-cyclopenta[b]-naphthalene]-3-carbaldehyde O-n-hexyloxime] yielded an IC70 of 0.072 µg/mL (≈ 0.12 µM).
In the case of `COC1=CC(=O)c2c(O)c3c(c(O)c2C1=O)C(=O)[C@]1(CCc2cc4cc(C=NOCc5ccc(Cl)cc5)[nH]c(=O)c4c(O)c21)C3=O` [Example 217, (8S)-4′,9,9′-trihydroxy-6′-methoxy-1,1′,3′,5′,8′-pentaoxo-1,1′,2,3′,5′,6,7,8′-octahydrospiro[cyclopenta[g]isoquinoline-8,2′-cyclopenta[b]-naphthalene]-3-carbaldehyde O-(4-chlorobenzyl)oxime], the IC70 is reported as 0.129 µg/mL (≈ 0.201 µM).
In the case of `COC1=CC(=O)c2c(O)c3c(c(O)c2C1=O)C(=O)[C@]1(CCc2cc4cc(C=NOCc5cccc(F)c5)[nH]c(=O)c4c(O)c21)C3=O` [Example 218, (8S)-4′,9,9′-trihydroxy-6′-methoxy-1,1′,3′,5′,8′-pentaoxo-1,1′,2,3′,5′,6,7,8′-octahydrospiro[cyclopenta[g]isoquinoline-8,2′-cyclopenta[b]-naphthalene]-3-carbaldehyde O-(3-fluorobenzyl)oxime], the IC70 is reported as 0.076 µg/mL (≈ 0.122 µM).
For `COC1=CC(=O)c2c(O)c3c(c(O)c2C1=O)C(=O)[C@]1(CCc2c1c(O)c1c(=O)[nH]c(C=NOC(C)C)cc1c2Br)C3=O` [Example 224, (8S)-5-bromo-4′,9,9′-trihydroxy-6′-methoxy-1,1′,3′,5′,8′-pentaoxo-1,1′,2,3′,5′,6,7,8′-octahydrospiro[cyclopenta[g]isoquinoline-8,2′-cyclopenta[b]-naphthalene]-3-carbaldehyde O-isopropyloxime], the IC70 was 0.047 µg/mL (≈ 0.0737 µM).
In the case of `CCCCCCON=Cc1cc2c(Br)c3c(c(O)c2c(=O)[nH]1)[C@@]1(CC3)C(=O)c2c(O)c3c(c(O)c2C1=O)C(=O)C(OC)=CC3=O` [Example 225, (8S)-5-bromo-4′,9,9′-trihydroxy-6′-methoxy-1,1′,3′,5′,8′-pentaoxo-1,1′,2,3′,5′,6,7,8′-octahydrospiro[cyclopenta[g]isoquinoline-8,2′-cyclopenta[b]-naphthalene]-3-carbaldehyde O-n-hexyloxime], the IC70 is reported as 0.111 µg/mL (≈ 0.163 µM).
`CCCCCCON=Cc1cc2c(I)c3c(c(O)c2c(=O)[nH]1)[C@@]1(CC3)C(=O)c2c(O)c3c(c(O)c2C1=O)C(=O)C(OC)=CC3=O` [Example 230, (8S)-5-iodo-4′,9,9′-trihydroxy-6′-methoxy-1,1′,3′,5′,8′-pentaoxo-1,1′,2,3′,5′,6,7,8′-octahydrospiro[cyclopenta[g]isoquinoline-8,2′-cyclopenta[b]-naphthalene]-3-carbaldehyde O-n-hexyloxime] showed an IC70 of 0.091 µg/mL (≈ 0.125 µM).
In the case of `COC1=CC(=O)c2c(O)c3c(c(O)c2C1=O)C(=O)[C@]1(CCc2c1c(O)c1c(=O)[nH]c(C=NOCc4ccc(Cl)cc4)cc1c2I)C3=O` [Example 232, (8S)-5-iodo-4′,9,9′-trihydroxy-6′-methoxy-1,1′,3′,5′,8′-pentaoxo-1,1′,2,3′,5′,6,7,8′-octahydrospiro[cyclopenta[g]isoquinoline-8,2′-cyclopenta[b]-naphthalene]-3-carbaldehyde O-(4-chlorobenzyl)oxime], the IC70 is reported as 0.317 µg/mL (≈ 0.413 µM).
With `COC1=CC(=O)c2c(O)c3c(c(O)c2C1=O)C(=O)[C@]1(CCc2c1c(O)c1c(=O)[nH]c(C=NOCc4cccc(F)c4)cc1c2I)C3=O` [Example 233, (8S)-5-iodo-4′,9,9′-trihydroxy-6′-methoxy-1,1′,3′,5′,8′-pentaoxo-1,1′,2,3′,5′,6,7,8′-octahydrospiro[cyclopenta[g]isoquinoline-8,2′-cyclopenta[b]-naphthalene]-3-carbaldehyde O-(3-fluorobenzyl)oxime] the IC70 was 0.1 µg/mL (≈ 0.133 µM).
`COC1=CC(=O)c2c(O)c3c(c(O)c2C1=O)C(=O)[C@]1(CCc2c1c(O)c1c(=O)[nH]c(C=NOCc4ccccc4)cc1c2I)C3=O` [Example 234, (8S)-5-iodo-4′,9,9′-trihydroxy-6′-methoxy-1,1′,3′,5′,8′-pentaoxo-1,1′,2,3′,5′,6,7,8′-octahydrospiro[cyclopenta[g]isoquinoline-8,2′-cyclopenta[b]-naphthalene]-3-carbaldehyde O-benzyloxime] gave an IC70 of 0.052 µg/mL (≈ 0.071 µM).
Work on `COC1=CC(=O)c2c(O)c3c(c(O)c2C1=O)C(=O)[C@]1(CCc2c1c(O)c1c(=O)[nH]c(C=NOCCN4CCOCC4)cc1c2I)C3=O` [Example 235, (8S)-5-iodo-4′,9,9′-trihydroxy-6′-methoxy-1,1′,3′,5′,8′-pentaoxo-1,1′,2,3′,5′,6,7,8′-octahydrospiro[cyclopenta[g]isoquinoline-8,2′-cyclopenta[b]-naphthalene]-3-carbaldehyde O-[2-morpholine-4-yl-ethyl)oxime] yielded an IC70 of 0.081 µg/mL (≈ 0.107 µM).
Work on `CON=Cc1cc2c(I)c3c(c(O)c2c(=O)[nH]1)[C@@]1(CC3)C(=O)c2c(O)c3c(c(O)c2C1=O)C(=O)C(OC)=CC3=O` [Example 236, (8S)-5-iodo-4′,9,9′-trihydroxy-6′-methoxy-1,1′,3′,5′,8′-pentaoxo-1,1′,2,3′,5′,6,7,8′-octahydrospiro[cyclopenta[g]isoquinoline-8,2′-cyclopenta[b]-naphthalene]-3-carbaldehyde O-methyloxime] yielded an IC70 of 0.121 µg/mL (≈ 0.184 µM).
Compound `COc1cccc2c1C(=O)c1c(O)c3c(c(O)c1C2=O)C[C@@](O)(C(=O)CO)C[C@@H]3O[C@H]1C[C@H](N)[C@H](O)[C@H](C)O1` [adriamycin] has an IC70 of 0.021 µg/mL (≈ 0.0386 µM).
Work on `C/C=C/C=C/c1cc2cc3c(c(O)c2c(=O)[nH]1)C1(CC3)C(=O)c2c(O)c3c(c(O)c2C1=O)C(=O)C(OC)=CC3=O` (centres unmarked) [fredericamycin, fredericamycin A] yielded an IC70 of 0.279 µg/mL (≈ 0.517 µM).
